Reference: PMC3528830 (ACS chemical biology, 2012)

B1: MBNL1: muscleblind-like 1 protein, RNA splicing regulator (protein, UniProt Q9NR56 1-388, looked up)
Muscleblind-like protein 1: MAVSVTPIRDTKWLTLEVCREFQRGTCSRPDTECKFAHPSKSCQVENGRVIACFDSLKGRCSRENCKYLHPPPHLKTQLEINGRNNLIQQKNMAMLAQQMQLANAMMPGAPLQPVPMFSVAPSLATNASAAAFNPYLGPVSPSLVPAEILPTAPMLVTGNPGVPVPAAAAAAAQKLMRTDRLEVCREYQRGNCNRGENDCRFAHPADSTMIDTNDNTVTVCMDYIKGRCSREKCKYFHPPAHLQAKIKAAQYQVNQAAAAQAAATAAAMTQSAVKSLKRPLEATFDLGIPQAVLPPLPKRPALEKTNGATAVFNTGIFQYQQALANMQLQQHTAFLPPVPMVHGATPATVSAATTSATSVPFAATATANQIPIISAEHLTSHKYVTQM

Experiments:
[1] = tested on: r(CUG)10-MBNL1 complex; assay: qTR-FRET assay, disruption of pre-formed r; type: biochemical; details: read-out: IC50 for r(CUG)-MBNL1, pre-formed r(CUG)10-MBNL1 complex, displacement
[2] = target: tRNA; assay: RNA binding assay; parameters: species or system yeast; details: read-out: tRNA Kd
[3] = target: r(CUG)12×2; details: read-out: r(CUG)12×2 Kd; data taken from a previous report; cited from earlier work

Molecule	IC50 [1]	Kd [2]	Kd [3]
NC1C(O)[C@H](OC2[C@H](N)CC(N)[C@@H](O[C@H]3OC(CNC(=O)CCCc4cn(CCCNC(=S)Nc5ccc(-c6c7ccc(=O)cc-7oc7cc(O)ccc67)c(C(=O)O)c5)nn4)[C@@H](O)[C@H](O)C3O)[C@@H]2O)OC(CO)[C@@H]1O (stereo partly shown) [FITC-K]	> 250000 nM	> 10000 nM	1000 ± 250 nM
B1	–	–	250 nM
